The text below walks through data of patent publication US5229413A, “Compositions containing indole-2-carboxylate compounds for treatment of CNS disorders” (G. D. Searle & Co., priority 1992, dated 1993).

Read-outs that look alike come from different tables or passages of the source. Some results are limits rather than exact numbers.

The test system of one test is NMDA receptor. Conditions: cited from earlier work; for reversal of NMDA antagonist activity / blocking effect by glycine: presence of glycine.
The target of test [1] is T1, strychnineinsensitive glycine recognition site (NMDA receptor-ion channel complex) (Rattus norvegicus, UniProt P35439).
T1 construct: Synaptic plasma membranes (SPM) were prepared from rat forebrain; from tissue; host or cells: rat forebrain synaptic plasma membranes
Nature of the test: Glycine binding assay, [3H]glycine, synaptic plasma membranes. Conditions: 10 nM [3H]glycine, pH 7.4, rat forebrain SPM; read-out: Ki apparent, Gly. As to the method:
Synaptic plasma membranes (SPM) were prepared from rat forebrain and stored as previously described [J. B. Monahan and J. Michel, J. Neurochem, 48, 1699-1708 (1987)]. Frozen membranes were thawed and diluted 1:20 with 0.04% triton X-100 in 50 mM tris/acetate (pH 7.4). Following incubation at 37° C. for 30 min., the SPM were collected by centrifugation at 95,000 X g for 15 min. The pellet was resuspended in 50 mM tris/acetate (pH 7.4, triton-free) and hand-homogenized five times. The membranes were again centrifuged as above. The pellet was washed two additional times with 50 mM tris/acetate (without homogenization) and centrifuged. The final pellet was resuspended with homogenization in 50 mM tris/acetate.
In the general receptor binding assay procedure, 10 nM [^3 H]glycine was added to the appropriate concentration of the test compounds and the assay initiated by the addition of 0.2-0.4 mg of ice cold SPM. The assay, which was done in 1.5 ml centrifuge tubes, was adjusted to a total volume of 1.0 ml with all additions being made in 50 mM tris/ acetate, pH 7.4 at 4° C. After a 10 minute incubation at 2° C., the samples were centrifuged for 15 min. at 12,000 g (4° C.) in a Beckman Microfuge 12. The supernatant was aspirated and the tube tip containing the pelleted membranes cut off and agitated in 0.5 ml of Beckman BTS-450 tissue solubilizer for a minimum of 6 hours at room temperature. Beckman MP scintillation cocktail (5 ml) containing 7 ml/liter acetic acid was then added and the samples counted on a Beckman LS 5800 liquid scintillation counter with automatic corrections for quenching and counting efficiency. […] The binding of [^3 H]glycine to the SPM was analyzed using Scatchard and Hill transformations and the Ki for other compounds was determined using logit-log analysis. Calculations and regression analysis were performed using templates developed for Lotus 123 as previously described [Pullan et al, Id.].

The next test relates to hippocampal slice. Nature of the test: Epileptic hippocampal slice, 0% Mg+2-induced epilepsy. Conditions: Rattus norvegicus, 300 μM Compound No. 35, 0% Mg+2. Format: cell-based, Sprague-Dawley albino rat. An excerpt: Hippocampal slices (450 μ) were obtained from male Sprague-Dawley albino rats (100-325 g). The method of slice preparation has been detailed elsewhere [A. H. Ganong et al., Brain Res., 273, 170-174 (1983)]. Slices were stored in a humidified interface chamber at room temperature and bathed in artificial cerebrospinal fluid (ACSF) which contained (in mM): NaCl 124.0, KCl 5.0, KH2 PO4 1.0, NaHCOP3 26.4, CaCl2, 2.0, MgSO4 1.5 and D-glucose 10.0, and was equilibrated with 95% 02:5% CO2. When needed for study, slices were placed one at a time in a small submersion chamber maintained at 35° C. where they were continuously perfused at 1.0-2.0 ml/min. Fresh solutions reached the recording chamber within 20 seconds and the perfusate was completely changed over within a minute. Additional oxygen and stirring was provided by an air jet (95% O2 :5% CO2) directed at the surface of the ACSF. Standard electrophysiological techniques were employed. Extracellular recording electrodes were glass micropipettes filled with 2.0 M NaCl and broken back to 2.0 m.OMEGA. resistance. All recording was from the somatic region of CA1. […] Intracellular recording electrodes of 60-100 MQ resistance were filled with 2.5 M KAc. […] The Schaffer collateral/commissural fibers were stimulated with tungsten bipolar stimulating electrodes at a rate of 0.03 Hz. The resulting field EPSP (S/C-CA1 EPSP) and the DC potential were amplified by an Axoprobe 1 amplifier and were continuously monitored on a Tektronix 5111A storage oscilloscope and a Gould 2300 chart recorder with a Gould Waveform storage module. Epileptiform activity was induced by omission of Mg++ ions from the perfusate, which removes the Mg++ mediated voltage-dependent block of the NMDA. receptor [B. Ault et al., J. Physiol., 307, 413-428 (1980)], or by the addition of the GABA antagonist picrotoxin. Drugs were added to the perfusate and zero magnesium refers to solutions which contain no added magnesium. The amplitude of the stimulus evoked primary population spike was used to assess the effects of experimental manipulations on the efficacy of synaptic function.

Test [2] deals with T2, NMDA receptor (rat brain receptor expressed in Xenopus oocytes) (Rattus norvegicus, UniProt P35439).
T2 construct: PolyA+ RNA (mRNA) was extracted from adult male rat cortex; expressed in transfected cells; host or cells: Xenopus laevis oocytes microinjected with rat cortex poly(A)+ RNA
Nature of the test: Xenopus oocytes injected with rat cortex mRNA, blocking of glycine effects (voltage clamp). It is filed as cell-based. As to conditions: 100 μM NMDA. How it is done:
PolyA+ RNA (mRNA) was extracted from adult male rat cortex using the refined guanidinium thiocyanate method developed by Han et al [J. H. Han et al., Biochemistry, 26, 1617-1625 (1987)] and the oligo (dT) cellulose chromatography procedure of Adiv and Leder [H. Aviv et al., Proc. Nat. Acad. Sci., 69, 1408-1412 (1972)]. Aliquots of mRNA (1.0 mg/ml water) were stored at -20° C.
Gravid adult female Xenopus laevis (Xenopus One, Ann Arbor, Mich. or NASCO, Ft. Atkinson, Wis.) were anaesthetized with 0.2% (w/v) Tricaine (3-amino benzoic acid ethyl ester; Sigma) and subjected to partial ovarectomy. Excised oocytes were then prepared and microinjected [N. W. Kleckner et al, Science 241 835-837 (1988)]. Oocytes were treated for one hour in Barth's solution (88.0 mM NaCl, 1.0 mM KCl, 2.4 mM NaHCO3, 0.41 mM CaCl2, 0.82 mM MgSO4, 10.0 μg/ml penicillin, 100.0 μg/ml streptomycin, 10.0 mM HEPES, pH 7.5) containing 1.5 mg/ml Neutral Protease (Beohringer Mannheim Biochemicals, Grade II). Oocytes were then placed in Barth's solution containing 100.0 mM sucrose and manually defolliculated with fine forceps. Defolliculated oocytes were then microinjected with approximately 50 ng of mRNA in Barth's solution at 16°-18° C.
Oocytes were assayed 2-8 days later for rat brain receptor expression via single electrode voltage. clamp (Axoclamp 2A, Axon Instruments) in a manner similar to that previously described [Kleckner et al, Id.]. […] Drugs were added to the perfusate and inward currents induced by agonist compounds were measured at peak steady state response. […] Antagonist compounds were perfused for a minimum of 3.0 minutes prior to subsequent agonist co-application. Data are expressed as percent maximal response (mean±S.E.M.). Half-maximal responses (EC50 's) and slopes for dose response data were determined from the least squares fit to the logistic regression equation.

In the next test the test system is Cerebellar cGMP. Nature of the test: Assay for effect on cGMP (cerebellum, intracisternal injection). It is filed as in vivo, Swiss Hausche mice. Conditions: D-Serine (100 μg) alone, ± SEM. As to the method: Male Swiss Hausche mice (25-30 g) were injected intracisternally (i.c.t.) with glycine agonists 10 minutes prior to sacrifice by focussed microwave irradiation. Compounds of the invention were injected intracisternally 2 minutes prior to the agonist. For intracisternal injections, al agonists were dissolved in HCl and diluted with isotonic saline prior to adjustment of the pH to between 6 and 7 with NaOH. The compounds of the invention were dissolved in isotonic saline and all compounds were administered in a volume of 5 μl.
Hydrochloric acid in extracts of the cerebellum were freeze-dried for assay of cGMP with a commercial RIA kit (NEN). Protein determinations (Lowery) and statistics (Dunett's t-test) were performed as described previously [P. L. Wcod et al., Neurochem., 19, 975-982 (1980)]. Groups consisted of 7-10 mice.

The target of test [3] is N-methyl-D-aspartate (NMDA) receptor site. Nature of the test: Glutamate (NMDA) binding assay, L-[3H]glutamate, synaptic plasma membranes. Conditions: L-[3H]glutamate 12.5 nM, pH 7.4, 0-4° C.; read-out: Ki apparent, NMDA. As to the method: The purpose of this assay is to determine the binding affinity of a compound of Formula I for the N-methyl-D-aspartate (NMDA) receptor site. This procedure was carried out as follows:
Synaptic plasma membranes (SPM) were prepared as previously described [Monahan, J. B. and Michel, J., "Identification and Characterization of an N-methyl-D-aspartate-specific L-[^3 H]glutamate Recognition Site in Synaptic Plasma Membranes, J. Neurochem., 48, 1699-1708 (1987)]. The SPM were stored at a concentration of 10-15 mg/ml in 0.32 M sucrose, 0.5 mM EDTA, 1 mM MgSO4, 5 mM Tris/SO4, pH 7.4, under liquid nitrogen. The identity and purity of the subcellular fractions were confirmed by both electron microscopy and marker enzymes. Protein concentrations were determined by using a modification of the method of Lowry [Ohnishi, S. T. and Barr, J. K., "A Simplified Method of Quantitating Proteins Using the Biuret and Phenol Reagents", Anal. Biochem., 86, 193-197 (1978)]. The SPM were thawed at room temperature, diluted twenty-fold with 50 mM Tris/acetate, pH 7.4, incubated at 37° C. for 30 minutes, and centrifuged at 100,000 g for 15 minutes. The dilution, incubation, and centrifugation was repeated a total of three times. This general method involved adding 12.5 nM of the L-[^3 H]glutamate radioligand to the appropriate concentration of the test compound and initiating the assay by the addition of ice cold SPM (0.2-0.45 mg). The binding assays were performed in 1.5 ml centrifuge tubes with the total volume adjusted to 1.0 ml. Additions of test compounds were made in 50 mM Tris/acetate, pH 7.4 and incubations were carried out at 0°-4° C. The incubation time for the NMDA binding assay was 10 minutes. To terminate the incubation, the samples were centrifuged for 15 minutes at 12,000 g and 4° C. in a Beckman Microfuge 12. The supernatant was aspirated and the pelleted membranes dissolved in Beckman Ready-Protein scintillation cocktail and the samples counted on a Beckman LS 5800 or 3801 liquid scintillation counter with automatic corrections for quenching and counting efficiency. Nonspecific binding was defined as the residual binding in the presence of 0.5 mM NMDA and was typically 15-25% of the total binding in the NMDA binding assay. Radioligand binding to the SPM was analyzed using Scatchard and Hill transformations and the Ki values of the compounds determined using logit-log transformations. Calculations and regression analysis were performed using templates developed for Lotus 1, 2, 3 as previously described [Pullan, L. M. "Automated Radioligand Receptor Binding Analysis with Templates for Lotus", Computer Appln. Biosci., 3 131 (1987)]. Binding results are reported in Table II for example compounds of the invention.

Setting [4] is: IC50, 1.0 μM Gly, 1.0 μM glycine.

One may read the IC50 as the concentration at which inhibition is half-maximal.

For the compound `O=C(O)c1cc(O)c2ccc(Cl)cc2n1` [7-chlorokynurenic acid], in the test with NMDA receptor, the NMDA antagonist activity result is “NMDA antagonist” and the “reversal of NMDA antagonist activity / blocking effect by glycine” value was “blocking effect can be reversed by glycine”.
With `CC(C)OC(=O)Cc1c(C(=O)O)[nH]c2cc(Cl)ccc12` [Compound No. 35, 2-propyl 2-carboxy-6-chloro-3-indoleacetate], in test [1], the Ki was found to be 3.9 µM. In addition, the activity at 300 µM with hippocampal slice (read-out: Burst duration) is 19.2%; with hippocampal slice (read-out: Primary population spike amplitude), 82.1%; in the test with hippocampal slice (read-out: Spontaneous activity) it was 0%; in the test with hippocampal slice (read-out: Sum of additional population spike amplitude), 35.6%. Besides, the IC50 in test [2] (setting [4]) turned out to be 4.5 ± 0.5 µM; in test [2] (IC50, 10 μM Gly, 10 μM glycine), 68.5 ± 13.5 µM.
As to `N[C@H](CO)C(=O)O` [D-Serine, reference compound], the “Cerebellar cGMP” value in the test with Cerebellar cGMP stood at 17.5 ± 2.4 pmol/mg protein.
On to `COc1ccc2[nH]c(C(=O)O)cc2c1` [compound 18, 5-methoxyindole-2-carboxylic acid], for which the Ki in test [1] and in test [3] was greater than 100 µM in each case.
Turning to `CCOC(=O)Cc1c(C(=O)OCC)[nH]c2ccccc12` [compound 19, ethyl 2-carboethoxy-3-indoleacetate], the Ki in test [1] and in test [3] was greater than 100 µM in each case.
Consider `CCOC(=O)Cc1c(C(=O)O)[nH]c2cc(Cl)ccc12` [compound 31, ethyl 2-carboxy-6-chloro-3-indoleacetate], for which the Ki in test [1] was 0.47 µM; in test [3] it was greater than 100 µM. For the same compound, the IC50 in test [2] (setting [4]) is 1.6 ± 0.01 µM; in test [2] (IC50, 10 μM Gly, 10 μM glycine), 16.1 ± 1.4 µM.
Turning to `NC(=O)Cc1c(C(=O)O)[nH]c2cc(Cl)ccc12` [compound 37, 2-carboxy-6-chloro-3-indoleacetamide], the Ki in test [1] was found to be 1.2 µM. Moreover, in test [2] (setting [4]), the IC50 amounted to 3.4 ± 0.9 µM.
As to `O=C(O)c1cc(O)c2ccccc2n1` [kynurenic acid, 2-carboxy-4-hydroxyquinoline], in the test on NMDA receptor, the NMDA antagonist activity entry was “known NMDA antagonist” and the “reversal of NMDA antagonist activity / blocking effect by glycine” value is on record as “can be reversed by the presence of glycine”.
